Structures are written as SMILES.

The values that follow come from ChEMBL document CHEMBL1151087, “N-sulfonyl derivatives of 6,7-dichloro 3,4-dihydro-3-oxo-quinoxalinecarboxylate as glycine-site NMDA and AMPA antagonists” (Bioorg Med Chem Lett, 1993).

Data set [1] has as its target Glutamate receptor ionotropic AMPA (Homo sapiens, UniProt P42261+P42262+P42263+P48058).
Description: Tested for the affinity to the Ionotropic glutamate receptor AMPA using [3H]-AMPA as radioligand
A short description of data set [2]: Partition coefficient was measured using a shake flask method with octanol/buffer at physiological pH. Format: physicochemical.
The species entered for data set [3] is Rattus norvegicus. The data set can be described thus: Tested for the ability to suppress the spontaneous epileptiform discharge rate in a cortical wedge model. Format: functional, organism-based.
The target in data set [4] is Glutamate [NMDA] receptor. Put plainly: Tested for the affinity to the glycine site -NMDA receptor using [3H]Gly as radioligand. Format: protein-complex assay.

Consider `O=C(NS(=O)(=O)c1ccccc1)c1nc2cc(Cl)c(Cl)cc2[nH]c1=O`, for which the half-inhibitory concentration (IC50) was determined as 4.3 µM in data set [1], 11 µM in data set [3] and 120 nM in data set [4]. This compound also gave a pH-dependent lipophilicity (logD) in data set [2] of 0.15.

In the case of `CS(=O)(=O)NC(=O)c1nc2cc(Cl)c(Cl)cc2nc1O`, the IC50 in data set [1] was determined as 14 µM; in data set [3], 11 µM; in data set [4], 360 nM. In data set [2], this compound had a logD of -1.1.

With `O=C(O)c1nc2cc(Cl)c(Cl)cc2nc1O` [6,7-DICHLORO-3-HYDROXY-2-QUINOXALINECARBOXYLIC ACID], the half-inhibitory concentration (IC50) amounted to 6.7 µM in data set [1] and 460 nM in data set [4]. In data set [2], this compound had a log distribution coefficient (logD) of -1.

For `O=c1[nH]c2cc([N+](=O)[O-])c([N+](=O)[O-])cc2[nH]c1=O` [DNQX], the IC50 in data set [1] was 0.2 µM; in data set [4] it was 840 nM. The compound also displayed a logD in data set [2] of 0.09.

For the compound `O=C(O)c1cc(O)c2c(Cl)cc(Cl)cc2n1`, the IC50 is greater than 100 µM in data set [1], 5 µM in data set [3] and 68 nM in data set [4]. For the same compound, in data set [2], the log distribution coefficient (logD) is -0.56.

As to `NS(=O)(=O)c1cccc2c1c([N+](=O)[O-])cc1nc(O)c(O)nc12` [NBQX], the IC50 in data set [4] was greater than 100000 nM.

For orientation: IC50 means the point on the concentration scale where inhibition reaches its midpoint. Higher therefore signals lower potency. For orientation: logD means lipophilicity at a set pH, counting ionised and neutral species. A higher logD goes with higher lipophilicity.
